Source: patent US8217072B2, “Salinosporamides and methods for use thereof” (The Regents of the University of California, priority 2003, dated 2012)

Assays:
[1] = Solubility in organic solvents; details: CHCl3, methanol, and other polar solvents like DMSO, acetone, acetonitrile, benzene, pyridine, N,N-dimethylformamide
[2] = tested on: Candida albicans(amphoterocin B resistant); experiment: Antifungal screening, Candida albicans (amphoterocin B resistant); type: cell-based; set-up: key: NSA = no significant activity
[3] = tested on: Enterococcus faecium (vanomycin resistant); experiment: Antibacterial screening, Enterococcus faecium; type: cell-based; set-up: key to IC50: NSA = no significant activity
[4] = tested on: Staphylococcus aureus (methecillin resistant); experiment: Antibacterial screening, Staphylococcus aureus; type: cell-based; set-up: key to IC50: NSA = no significant activity

## C[C@@]12OC(=O)[C@]1([C@@H](O)[C@@H]1C=CCCC1)NC(=O)[C@@H]2CCCl [Salinosporamide A]
[1]
  solubility: soluble
[2]
  IC50: NSA*
[3]
  antibacterial activity: no antibacterial activity
[3]; vanomycin resistant
  IC50: NSA*
[4]
  antibacterial activity: no antibacterial activity
[4]; methecillin resistant
  IC50: NSA*
